compound: C1CCC(CC1)N(CCNCCC2=C3C(=C(C=C2)O)NC(=O)CO3)C(=O)CCNCCC4=CC(=C(C=C4)Cl)Cl [AZ505] + CC(=O)Nc1cccc(-n2c(=O)n(C3CC3)c(=O)c3c(Nc4ccc(I)cc4F)n(C)c(=O)c(C)c32)c1 [Trametinib] (partner 0.02 µM); experiment: relative viability (nuclei count vs DMSO), 5 days (fraction); higher = more cells survive; settings: first compound 0.08 µM
Method in brief: (§1)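 One day after seeding in 1536-well plates, lung cancer cell lines were dosed by pin tool. Dosing was either single-drug or a fixed anchor-drug dose plus five library-drug doses (not always all listed) in √10 steps. After 5 days, nuclei were stained in one fix-and-stain step and counted on 4× images, and relative viability is the nuclei count of treated wells over that of vehicle wells, given as the median of duplicate plates.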

| Cell Line | relative viability |
| --- | --- |
| HCC-44 | 1.03 |
| LU99A | 0.518 |
| BEN | 0.971 |
| HARA | 0.454 |
| NCI-H322M | 0.501 |
| LCLC-97TM1 | 0.208 |
| NCI-H2009 | 0.247 |
| A-427 | 0.705 |
| NCI-H441 | 0.413 |
| NCI-H661 | 0.603 |
| NCI-H1734 | 0.65 |
| NCI-H460 | 0.218 |
| NCI-H2347 | 0.332 |
| SW 1573 | 0.536 |
| 201T | 0.688 |
| NCI-H1915 | 0.294 |
| HCC-827 | 0.548 |
| LXF-289 | 0.632 |
| NCI-H23 | 0.246 |
| NCI-H647 | 0.478 |
| NCI-H1651 | 0.814 |
| EPLC-272H | 0.308 |
| NCI-H1792 | 0.426 |
| NCI-H1355 | 0.419 |
| NCI-H3122 | 0.211 |
| NCI-H1437 | 0.504 |
| NCI-H1755 | 0.728 |
| NCI-H2023 | 0.576 |
| HCC-15 | 0.278 |

same assay, conditions: first compound 0.253 µM

| Cell Line | relative viability |
| --- | --- |
| HOP-62 | 0.326 |
| HCC-44 | 1.09 |
| LU99A | 0.51 |
| BEN | 1.08 |
| LCLC-97TM1 | 0.156 |
| NCI-H2009 | 0.262 |
| A-427 | 0.776 |
| NCI-H441 | 0.385 |
| NCI-H661 | 0.596 |
| NCI-H1734 | 0.647 |
| NCI-H460 | 0.174 |
| NCI-H2347 | 0.258 |
| SW 1573 | 0.657 |
| 201T | 0.716 |
| NCI-H1915 | 0.303 |
| HCC-827 | 0.577 |
| LXF-289 | 0.629 |
| NCI-H23 | 0.414 |
| NCI-H647 | 0.509 |
| NCI-H1651 | 0.863 |
| EPLC-272H | 0.292 |
| NCI-H1792 | 0.426 |
| NCI-H1355 | 0.394 |
| NCI-H3122 | 0.258 |
| NCI-H1437 | 0.472 |
| NCI-H1755 | 0.785 |
| NCI-H2023 | 0.548 |
| HCC-15 | 0.391 |

same assay, conditions: first compound 0.8 µM

| Cell Line | relative viability |
| --- | --- |
| NCI-H2405 | 0.615 |
| HOP-62 | 0.333 |
| HCC-44 | 1.02 |
| LU99A | 0.531 |
| BEN | 0.972 |
| HARA | 0.62 |
| HCC-78 | 0.594 |
| NCI-H322M | 0.521 |
| LCLC-97TM1 | 0.166 |
| NCI-H2009 | 0.233 |
| A-427 | 0.631 |
| NCI-H441 | 0.536 |
| NCI-H661 | 0.537 |
| NCI-H1734 | 0.652 |
| NCI-H460 | 0.065 |
| NCI-H2347 | 0.263 |

| Cell Line | relative viability |
| --- | --- |
| SW 1573 | 0.515 |
| 201T | 0.722 |
| NCI-H1915 | 0.236 |
| HCC-827 | 0.501 |
| LXF-289 | 0.66 |
| NCI-H23 | 0.427 |
| NCI-H647 | 0.404 |
| NCI-H1651 | 0.834 |
| EPLC-272H | 0.307 |
| NCI-H1792 | 0.482 |
| NCI-H1355 | 0.446 |
| NCI-H3122 | 0.215 |
| NCI-H1437 | 0.473 |
| NCI-H1755 | 0.749 |
| NCI-H2023 | 0.525 |
| HCC-15 | 0.341 |

same assay, conditions: first compound 2.53 µM

| Cell Line | relative viability |
| --- | --- |
| NCI-H2405 | 0.586 |
| HOP-62 | 0.382 |
| HCC-44 | 1.05 |
| BEN | 1 |
| HARA | 0.504 |
| HCC-78 | 0.701 |
| NCI-H322M | 0.491 |
| NCI-H2009 | 0.276 |
| A-427 | 0.738 |
| NCI-H441 | 0.568 |
| NCI-H661 | 0.577 |
| NCI-H1734 | 0.675 |
| NCI-H460 | 0.126 |
| NCI-H2347 | 0.247 |
| SW 1573 | 0.474 |
| 201T | 0.705 |
| NCI-H1915 | 0.266 |
| HCC-827 | 0.501 |
| LXF-289 | 0.678 |
| NCI-H23 | 0.442 |
| NCI-H647 | 0.379 |
| NCI-H1651 | 0.817 |
| EPLC-272H | 0.277 |
| NCI-H1792 | 0.422 |
| NCI-H1355 | 0.445 |
| NCI-H3122 | 0.27 |
| NCI-H1437 | 0.662 |
| NCI-H1755 | 0.741 |
| NCI-H2023 | 0.682 |
| HCC-15 | 0.366 |

same assay, conditions: first compound 8 µM

| Cell Line | relative viability |
| --- | --- |
| NCI-H2405 | 0.603 |
| HOP-62 | 0.32 |
| HCC-44 | 1.1 |
| LU99A | 0.498 |
| BEN | 1.08 |
| HARA | 0.71 |
| HCC-78 | 0.653 |
| NCI-H322M | 0.486 |
| LCLC-97TM1 | 0.191 |
| NCI-H2009 | 0.287 |
| A-427 | 0.743 |
| NCI-H441 | 0.465 |
| NCI-H661 | 0.541 |
| NCI-H1734 | 0.691 |
| NCI-H460 | 0.0757 |
| NCI-H2347 | 0.254 |

| Cell Line | relative viability |
| --- | --- |
| SW 1573 | 0.543 |
| 201T | 0.711 |
| NCI-H1915 | 0.301 |
| HCC-827 | 0.533 |
| LXF-289 | 0.665 |
| NCI-H23 | 0.347 |
| NCI-H647 | 0.467 |
| NCI-H1651 | 0.829 |
| EPLC-272H | 0.269 |
| NCI-H1792 | 0.435 |
| NCI-H1355 | 0.44 |
| NCI-H3122 | 0.267 |
| NCI-H1437 | 0.568 |
| NCI-H1755 | 0.746 |
| NCI-H2023 | 0.569 |
| HCC-15 | 0.372 |

compound: C1CCC(CC1)N(CCNCCC2=C3C(=C(C=C2)O)NC(=O)CO3)C(=O)CCNCCC4=CC(=C(C=C4)Cl)Cl [AZ505] + CC(C)C[C@H](NC(=O)[C@H](Cc1ccccc1)NC(=O)c1cnccn1)B(O)O [Bortezomib] (partner 0.002 µM); experiment: as above; settings: first compound 0.08 µM
Method in brief: as §1

| Cell Line | relative viability |
| --- | --- |
| NCI-H2405 | 0.733 |
| HOP-62 | 0.911 |
| HCC-44 | 0.865 |
| LU99A | 1.02 |
